Test system: HEK293T-Gα16gust44 cells transfected with empty vector (mock)
Experiment: Calcium imaging assay (FLIPR), empty vector control (mock)
Format: cell-based
Experimental: This set of bile acids was chosen because of their commercial availability in high purities, their diversity within the class of bile acids and their previous detection and quantitation in human blood. Stock solutions were prepared in DMSO.
As basal growth medium for the HEK293T-Gα16gust44 cell line[17],[59] served Dulbecco’s modified eagle medium (DMEM) (Thermo Fisher Scientific, Darmstadt, Germany) supplemented with 10 % fetal bovine serum (Sigma-Aldrich, Steinheim, Germany), 2 mM L-glutamine (Sigma-Aldrich, Steinheim, Germany), 100 units/ml penicillin (Sigma Aldrich, Steinheim, Germany) and 100 µg/ml streptomycin (Sigma Aldrich, Steinheim, Germany). Growth conditions were 37 °C, 5 % CO2 and saturated air-humidity[60].
HEK293T-Gα16gust44 cells were seeded on poly-D-lysine (10 µg/ml) coated 96-well plates to reach a confluence of 40-60 % the next day. For transient transfection 150 ng of plasmid DNA containing the receptor of interest and 0.3 µl lipofectamine 2000 (Thermo Fisher Scientific, Darmstadt, Germany) per well were used and transfection took place according to the manual of lipofectamine 2000. […] The empty vector DNA (mock) was transfected as negative control[14],[41].
Cells were loaded using the calcium-sensitive fluorescent dye Fluo-4-AM (Abcam, Cambridge, Great Britain) in the presence of 2.5 mM probenecid (Sigma-Aldrich, Steinheim, Germany) the day after transfection[13],[41]. 1 h after loading, cells were washed with C1 buffer using a BioTek Cell Washer, incubated in the dark for half an hour and washed again. For automated agonist application and measurement of fluorescence changes, a FLIPR^TETRA device (Molecular Devices, San José, United States) was used. Viability of cells was tested by application of 100 nM Somatostatin 14 (Bachem, Bubendorf, Switzerland)[42].
Measured data were negative control corrected by subtracting the signal of the mock-transfected cells and exported to Microsoft Excel using the FLIPR software ScreenWorks 4.2. In Microsoft Excel software, standardization of maximum fluorescence intensities to the basal fluorescence and normalization to the buffer-only control was done to calculate the relative fluorescence changes (ΔF/F).
Initial screening experiments performed in duplicate wells were confirmed by at least one replication and representative traces were selected for display. All dose-response relationships were determined by three independent experiments (biological replicates) performed in duplicates (technical replicates). Threshold concentrations, defined as lowest substance concentrations leading to statistically significant elevated fluorescence changes in receptor-transfected cells compared with empty vector-transfected cells, were determined using SigmaPlot with Student’s t-test to evaluate statistical significance (p < 0.01).

[1] = Mock, sheet TAS2R14, conc. 0,01 mM
[2] = Mock, sheet TAS2R14, conc. 0,03 mM
[3] = Mock, sheet TAS2R14, conc. 0,001 mM
[4] = Mock, sheet TAS2R14, conc. 0,003 mM
[5] = conc. 0,01 mM, Mock (sheet TAS2R1)
[6] = conc. 0,0003 mM, Mock (sheet TAS2R1)
[7] = conc. 0,001 mM, Mock (sheet TAS2R1)
[8] = conc. 0,003 mM, Mock (sheet TAS2R1)
[9] = Mock (sheet Tas2r123), conc. 0,01 mM
[10] = Mock (sheet Tas2r123), conc. 0,03 mM
[11] = Mock (sheet Tas2r123), conc. 0,0003 mM
[12] = Mock (sheet Tas2r123), conc. 0,001 mM
[13] = Mock (sheet Tas2r123), conc. 0,003 mM
[14] = Mock, sheet TAS2R4, conc. 0,01 mM
[15] = Mock, sheet TAS2R4, conc. 0,03 mM
[16] = Mock, sheet TAS2R4, conc. 0,0003 mM
[17] = Mock, sheet TAS2R4, conc. 0,001 mM
[18] = Mock, sheet TAS2R4, conc. 0,003 mM
[19] = Mock, sheet Tas2r105, conc. 0,01 mM
[20] = Mock, sheet Tas2r105, conc. 0,03 mM
[21] = Mock, sheet Tas2r105, conc. 0,001 mM
[22] = Mock, sheet Tas2r105, conc. 0,003 mM
[23] = Mock, sheet Tas2r108, conc. 0,01 mM
[24] = Mock, sheet Tas2r108, conc. 0,03 mM
[25] = Mock, sheet Tas2r108, conc. 0,001 mM
[26] = Mock, sheet Tas2r108, conc. 0,003 mM
[27] = conc. 0,03 mM, Mock (sheet TAS2R1)

## C[C@H](CCC(=O)O)[C@H]1CC[C@H]2[C@@H]3[C@H](O)C[C@@H]4C[C@H](O)CC[C@]4(C)[C@H]3CC[C@]12C [Chenodeoxycholic Acid, chenodeoxycholic acid]
[1]
  Δ F/F: -0.007814
[2]
  Δ F/F: -0.004111
Mock, sheet TAS2R14, conc. 0,00003 mM
  Δ F/F: -0.01383
Mock, sheet TAS2R14, conc. 0,0001 mM
  Δ F/F: -0.0179
Mock, sheet TAS2R14, conc. 0,0003 mM
  Δ F/F: -0.01292
[3]
  Δ F/F: -0.005111
[4]
  Δ F/F: -0.006729
[5]
  Δ F/F: -0.001385
conc. 0,00003 mM, Mock (sheet TAS2R1)
  Δ F/F: -0.0006042
conc. 0,0001 mM, Mock (sheet TAS2R1)
  Δ F/F: -0.001709
[6]
  Δ F/F: -0.001427
[7]
  Δ F/F: -0.001629
[8]
  Δ F/F: -0.001467

## C[C@H](CCC(=O)O)[C@H]1CC[C@H]2[C@@H]3[C@H](O)C[C@@H]4C[C@H](O)CC[C@]4(C)[C@H]3C[C@H](O)[C@]12C [Cholic Acid, cholic acid]
Conc. 0,01 mM, Mock (sheet TAS2R39)
  Δ F/F: -0.01821
Conc. 0,1 mM, Mock (sheet TAS2R39)
  Δ F/F: -0.02224
Conc. 0,03 mM, Mock (sheet TAS2R39)
  Δ F/F: -0.01697
Conc. 0,3 mM, Mock (sheet TAS2R39)
  Δ F/F: -0.04388
Conc. 0,001 mM, Mock (sheet TAS2R39)
  Δ F/F: -0.01201
Conc. 1 mM, Mock (sheet TAS2R39)
  Δ F/F: -0.08707
Conc. 0,003 mM, Mock (sheet TAS2R39)
  Δ F/F: -0.01404
[9]
  Δ F/F: -0.0003322
Mock (sheet Tas2r123), conc. 0,1 mM
  Δ F/F: -0.0005726
[10]
  Δ F/F: -0.0005964
Mock (sheet Tas2r123), conc. 0,3 mM
  Δ F/F: 0.0008115
[11]
  Δ F/F: -0.001363
[12]
  Δ F/F: -0.001187
[13]
  Δ F/F: -0.0002243
Mock (sheet Tas2r126), conc. 0,01 mM
  Δ F/F: -0.02005
Mock (sheet Tas2r126), conc. 0,1 mM
  Δ F/F: -0.02997
Mock (sheet Tas2r126), conc. 0,03 mM
  Δ F/F: -0.01829
Mock (sheet Tas2r126), conc. 0,3 mM
  Δ F/F: -0.04711
Mock (sheet Tas2r126), conc. 0,001 mM
  Δ F/F: -0.01156
Mock (sheet Tas2r126), conc. 1 mM
  Δ F/F: -0.07412
Mock (sheet Tas2r126), conc. 0,003 mM
  Δ F/F: -0.01876
Mock (sheet Tas2r144), conc. 0,01 mM
  Δ F/F: 0.0002394
Mock (sheet Tas2r144), conc. 0,1 mM
  Δ F/F: -0.0009617
Mock (sheet Tas2r144), conc. 0,03 mM
  Δ F/F: 0.0001706
Mock (sheet Tas2r144), conc. 0,3 mM
  Δ F/F: 2.3167e-5
Mock (sheet Tas2r144), conc. 0,003 mM
  Δ F/F: -0.001282
[14]
  Δ F/F: -0.001675
Mock, sheet TAS2R4, conc. 0,1 mM
  Δ F/F: 0.0001605
[15]
  Δ F/F: -0.001772
Mock, sheet TAS2R4, conc. 0,3 mM
  Δ F/F: 0.0004382
[16]
  Δ F/F: 0.001019
[17]
  Δ F/F: -0.0001368
[18]
  Δ F/F: -0.001078
[1]
  Δ F/F: -0.01829
Mock, sheet TAS2R14, conc. 0,1 mM
  Δ F/F: -0.02451
[2]
  Δ F/F: -0.01803
Mock, sheet TAS2R14, conc. 0,3 mM
  Δ F/F: -0.04097
[3]
  Δ F/F: -0.0206
Mock, sheet TAS2R14, conc. 1 mM
  Δ F/F: -0.06455
[4]
  Δ F/F: -0.02081
[19]
  Δ F/F: -0.01514
Mock, sheet Tas2r105, conc. 0,1 mM
  Δ F/F: -0.02586
[20]
  Δ F/F: -0.01353
Mock, sheet Tas2r105, conc. 0,3 mM
  Δ F/F: -0.04947
[21]
  Δ F/F: -0.01259
Mock, sheet Tas2r105, conc. 1 mM
  Δ F/F: -0.08731
[22]
  Δ F/F: -0.01645
[23]
  Δ F/F: -0.0241
Mock, sheet Tas2r108, conc. 0,1 mM
  Δ F/F: -0.03289
[24]
  Δ F/F: -0.0233
Mock, sheet Tas2r108, conc. 0,3 mM
  Δ F/F: -0.05172
[25]
  Δ F/F: -0.01866
Mock, sheet Tas2r108, conc. 1 mM
  Δ F/F: -0.07524
[26]
  Δ F/F: -0.01483
Mock, sheet Tas2r117, conc. 0,01 mM
  Δ F/F: -0.001513
Mock, sheet Tas2r117, conc. 0,1 mM
  Δ F/F: -0.0006881
Mock, sheet Tas2r117, conc. 0,03 mM
  Δ F/F: -0.0006551
Mock, sheet Tas2r117, conc. 0,3 mM
  Δ F/F: -0.001135
Mock, sheet Tas2r117, conc. 0,0003 mM
  Δ F/F: -0.002036
Mock, sheet Tas2r117, conc. 0,001 mM
  Δ F/F: -0.0005906
Mock, sheet Tas2r117, conc. 0,003 mM
  Δ F/F: -0.001196
[5]
  Δ F/F: -0.002604
conc. 0,1 mM, Mock (sheet TAS2R1)
  Δ F/F: -0.002131
[27]
  Δ F/F: -0.002188
conc. 0,3 mM, Mock (sheet TAS2R1)
  Δ F/F: -0.001094
[7]
  Δ F/F: -0.001978
[8]
  Δ F/F: -0.003067

## C[C@H](CCC(=O)O)[C@H]1CC[C@H]2[C@@H]3CC[C@@H]4C[C@H](O)CC[C@]4(C)[C@H]3C[C@H](O)[C@]12C [Deoxycholic Acid, deoxycholic acid]
[9]
  Δ F/F: -0.0008829
[10]
  Δ F/F: -0.0003165
Mock (sheet Tas2r123), conc. 0,0001 mM
  Δ F/F: 0.00132
[11]
  Δ F/F: -0.002173
[12]
  Δ F/F: -0.000706
[13]
  Δ F/F: -0.0005125
[14]
  Δ F/F: 0.0004181
[15]
  Δ F/F: 0.001864
[16]
  Δ F/F: 0.0005365
[17]
  Δ F/F: 0.0001116
[18]
  Δ F/F: 0.0001746
[19]
  Δ F/F: -0.01259
[20]
  Δ F/F: -0.004122
Mock, sheet Tas2r105, conc. 0,00003 mM
  Δ F/F: -0.01446
Mock, sheet Tas2r105, conc. 0,0001 mM
  Δ F/F: -0.0178
Mock, sheet Tas2r105, conc. 0,0003 mM
  Δ F/F: -0.01787
[21]
  Δ F/F: -0.0148
[22]
  Δ F/F: -0.01449
[23]
  Δ F/F: -0.006813
[24]
  Δ F/F: -0.0003425
Mock, sheet Tas2r108, conc. 0,00003 mM
  Δ F/F: -0.01113
Mock, sheet Tas2r108, conc. 0,0001 mM
  Δ F/F: -0.01772
Mock, sheet Tas2r108, conc. 0,0003 mM
  Δ F/F: -0.01462
[25]
  Δ F/F: -0.01703
[26]
  Δ F/F: -0.01481
[5]
  Δ F/F: -0.0008034
[27]
  Δ F/F: -0.0003771
[6]
  Δ F/F: -0.002238
[7]
  Δ F/F: -0.001593
[8]
  Δ F/F: -0.0004081

From paper PMC10247784, “Physiological activation of human and mouse bitter taste receptors by bile acids” (Communications Biology, 2023)
